The values below come from patent US9522921B2, “Photochromic spirooxazine compounds” (Sabic Global Technologies, B.V., priority 2015, dated 2016).

The data set in a line: Absorption spectrum in toluene upon irradiation with UV-A radiation. In kind it is physicochemical. From the text:
The properties of the compound characterized by Structure A were investigated.

Molecules are shown by their SMILES.

In the case of `CN1c2ccccc2C(C)(C)C12C=Nc1cc(N(c3ccccc3)c3ccc4ccccc4c3)c3ccccc3c1O2` (centres unmarked) [Structure A, 1,3,3-trimethyl-N-(naphthalen-2-yl)-N-phenylspiro[indoline-2,2′-naphtho[1,2-b][1,4]oxazin]-6′-amine], the “color displayed upon irradiation” value (upon irradiation with UV-A radiation) is “bluish-green color”. This compound came in with a maximum absorption (upon irradiation with UV-A radiation (open merocyanine form)) of 658 nm.
